One series concerns the target T1, ABCD3 (Homo sapiens, UniProt P28288).
T1 construct: profiled in 60 diverse cancer cell lines (the NCI-60) using real-time RT-PCR; endogenous in cells; host or cells: NCI-60 human cancer cell lines
Nature of the series: Correlation of ABCD3 expression with drug sensitivity across the NCI-60. In kind it is cell-based. The following applies: Pearson correlation of ABCD3 expression with sensitivity of the 60 cell lines; 1429 compounds; inverse, p < 0.0001.

Another series addresses T2, ABCB2 (Homo sapiens, UniProt Q03518).
T2 construct: profiled in 60 diverse cancer cell lines (the NCI-60) using real-time RT-PCR; endogenous in cells; host or cells: NCI-60 human cancer cell lines
Nature of the series: Correlation of ABCB2 expression with drug sensitivity across the NCI-60. It counts as cell-based. Particulars: Pearson correlation of ABCB2 expression with sensitivity of the 60 cell lines; 1429 compounds; inverse, p < 0.0001.

The next series has as its target T3, ABCD4 (Homo sapiens, UniProt O14678).
T3 construct: profiled in 60 diverse cancer cell lines (the NCI-60) using real-time RT-PCR; endogenous in cells; host or cells: NCI-60 human cancer cell lines
Nature of the series: Correlation of ABCD4 expression with drug sensitivity across the NCI-60. In kind it is cell-based. The following applies: Pearson correlation of ABCD4 expression with sensitivity of the 60 cell lines; 1429 compounds; inverse, p < 0.0001.

Another series deals with ABCB1 (Homo sapiens, UniProt P08183). Nature of the series: Correlation of ABCB1 expression with drug sensitivity across the NCI-60. Put shortly: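 SYBR Green real-time RT-PCR on 150 ng total RNA with 250 nM primers: RT 20 min at 50 °C, then 45 cycles; expression taken as crossing-point cycle number. Correlated with drug sensitivity of 1429 compounds across the cell panel; permutation p-values with step-down and step-up (FDR q-value) multiple-testing correction.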
Chain of ABCB1 (P08183 whole entry): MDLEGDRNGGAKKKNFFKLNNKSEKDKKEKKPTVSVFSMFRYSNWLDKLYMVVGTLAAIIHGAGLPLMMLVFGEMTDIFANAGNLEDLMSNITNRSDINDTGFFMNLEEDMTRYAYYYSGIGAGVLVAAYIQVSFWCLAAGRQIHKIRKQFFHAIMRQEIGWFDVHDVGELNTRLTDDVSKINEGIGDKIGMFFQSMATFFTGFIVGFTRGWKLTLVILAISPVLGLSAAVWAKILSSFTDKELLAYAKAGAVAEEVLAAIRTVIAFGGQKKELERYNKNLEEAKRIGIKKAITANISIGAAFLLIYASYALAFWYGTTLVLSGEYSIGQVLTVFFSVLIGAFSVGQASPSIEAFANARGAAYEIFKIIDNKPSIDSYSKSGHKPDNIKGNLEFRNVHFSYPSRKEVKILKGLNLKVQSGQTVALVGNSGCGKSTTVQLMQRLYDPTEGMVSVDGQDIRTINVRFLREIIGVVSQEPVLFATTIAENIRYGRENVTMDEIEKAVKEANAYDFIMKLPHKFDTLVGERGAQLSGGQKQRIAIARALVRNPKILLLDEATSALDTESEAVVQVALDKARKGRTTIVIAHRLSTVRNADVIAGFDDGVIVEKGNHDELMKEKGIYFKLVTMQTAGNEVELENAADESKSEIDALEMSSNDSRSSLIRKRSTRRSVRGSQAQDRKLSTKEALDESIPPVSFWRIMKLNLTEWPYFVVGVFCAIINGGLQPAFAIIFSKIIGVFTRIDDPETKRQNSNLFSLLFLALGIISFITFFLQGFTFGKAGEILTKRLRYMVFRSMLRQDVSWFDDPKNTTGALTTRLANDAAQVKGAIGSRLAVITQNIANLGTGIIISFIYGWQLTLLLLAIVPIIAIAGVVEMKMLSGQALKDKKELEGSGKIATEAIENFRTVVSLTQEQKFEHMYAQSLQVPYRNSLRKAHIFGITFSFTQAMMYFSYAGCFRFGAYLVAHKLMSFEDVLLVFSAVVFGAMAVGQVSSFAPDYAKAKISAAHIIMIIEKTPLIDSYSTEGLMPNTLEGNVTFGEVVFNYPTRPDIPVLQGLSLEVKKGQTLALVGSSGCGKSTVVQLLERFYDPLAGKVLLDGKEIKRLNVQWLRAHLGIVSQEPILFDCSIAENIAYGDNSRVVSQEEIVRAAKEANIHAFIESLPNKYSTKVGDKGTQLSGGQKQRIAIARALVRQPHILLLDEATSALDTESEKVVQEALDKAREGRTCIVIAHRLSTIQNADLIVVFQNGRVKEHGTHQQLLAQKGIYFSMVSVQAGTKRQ

A further series deals with T4, ABCD1 (Homo sapiens, UniProt P33897).
T4 construct: profiled in 60 diverse cancer cell lines (the NCI-60) using real-time RT-PCR; endogenous in cells; host or cells: NCI-60 human cancer cell lines
T4 sequence (P33897 whole entry): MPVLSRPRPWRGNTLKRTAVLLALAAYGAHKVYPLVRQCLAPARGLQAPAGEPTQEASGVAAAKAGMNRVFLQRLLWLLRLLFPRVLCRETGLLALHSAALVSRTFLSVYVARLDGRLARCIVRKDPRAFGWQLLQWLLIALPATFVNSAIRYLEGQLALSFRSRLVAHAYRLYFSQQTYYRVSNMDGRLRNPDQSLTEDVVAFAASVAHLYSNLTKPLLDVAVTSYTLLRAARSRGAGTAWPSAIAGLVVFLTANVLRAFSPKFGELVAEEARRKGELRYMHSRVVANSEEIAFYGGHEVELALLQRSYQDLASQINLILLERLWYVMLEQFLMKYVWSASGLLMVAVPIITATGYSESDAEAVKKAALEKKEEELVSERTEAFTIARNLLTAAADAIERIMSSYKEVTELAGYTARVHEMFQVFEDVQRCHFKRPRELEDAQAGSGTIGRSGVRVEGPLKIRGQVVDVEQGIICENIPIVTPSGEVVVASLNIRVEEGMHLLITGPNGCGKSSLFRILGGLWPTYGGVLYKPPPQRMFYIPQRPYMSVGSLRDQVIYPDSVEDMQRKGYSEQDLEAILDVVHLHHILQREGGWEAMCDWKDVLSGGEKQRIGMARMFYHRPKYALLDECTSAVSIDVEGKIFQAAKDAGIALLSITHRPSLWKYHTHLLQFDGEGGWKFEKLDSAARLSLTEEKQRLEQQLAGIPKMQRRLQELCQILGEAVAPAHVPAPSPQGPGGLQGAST
Nature of the series: Correlation of ABCD1 expression with drug sensitivity across the NCI-60. It counts as cell-based. Particulars: Pearson correlation of ABCD1 expression with sensitivity of the 60 cell lines; 1429 compounds; inverse, p < 0.0001.

The target of a further series is T5, ABCF1 (Homo sapiens, UniProt Q8NE71).
T5 construct: endogenous in cells; host or cells: NCI-60 human cancer cell lines
The series can be described thus: Correlation of ABCF1 expression with drug sensitivity across the NCI-60. In kind it is cell-based. Particulars: Pearson correlation of ABCF1 expression with sensitivity of the 60 cell lines; 1429 compounds; inverse, p < 0.0001.

A further series concerns the target T6, ABCG8 (Homo sapiens, UniProt Q9H221).
T6 construct: endogenous in cells; host or cells: NCI-60 human cancer cell lines
Nature of the series: Correlation of ABCG8 expression with drug sensitivity across the NCI-60. Particulars: Pearson correlation of ABCG8 expression with sensitivity of the 60 cell lines; 1429 compounds; inverse, p < 0.0001. In kind it is cell-based.

Another series has as its target T7, ABCC4 (Homo sapiens, UniProt O15439).
T7 construct: profiled in 60 diverse cancer cell lines (the NCI-60) using real-time RT-PCR; endogenous in cells; host or cells: NCI-60 human cancer cell lines
Nature of the series: Correlation of ABCC4 expression with drug sensitivity across the NCI-60. In kind it is cell-based. The following applies: Pearson correlation of ABCC4 expression with sensitivity of the 60 cell lines; 1429 compounds; inverse, p < 0.0001.

For another series, the target named is T8, ABCB3 (Homo sapiens, UniProt Q03519).
T8 construct: profiled in 60 diverse cancer cell lines (the NCI-60) using real-time RT-PCR; endogenous in cells; host or cells: NCI-60 human cancer cell lines
Nature of the series: Correlation of ABCB3 expression with drug sensitivity across the NCI-60. The following applies: Pearson correlation of ABCB3 expression with sensitivity of the 60 cell lines; 1429 compounds; inverse, p < 0.0001. It counts as cell-based.

In the next series the target is T9, ABCA2 (Homo sapiens, UniProt Q9BZC7).
T9 construct: profiled in 60 diverse cancer cell lines (the NCI-60) using real-time RT-PCR; endogenous in cells; host or cells: NCI-60 human cancer cell lines
The series can be described thus: Correlation of ABCA2 expression with drug sensitivity across the NCI-60. In kind it is cell-based. Particulars: Pearson correlation of ABCA2 expression with sensitivity of the 60 cell lines; 1429 compounds; inverse, p < 0.0001.

The structures appear in SMILES notation.

T3 sequence (O14678 whole entry): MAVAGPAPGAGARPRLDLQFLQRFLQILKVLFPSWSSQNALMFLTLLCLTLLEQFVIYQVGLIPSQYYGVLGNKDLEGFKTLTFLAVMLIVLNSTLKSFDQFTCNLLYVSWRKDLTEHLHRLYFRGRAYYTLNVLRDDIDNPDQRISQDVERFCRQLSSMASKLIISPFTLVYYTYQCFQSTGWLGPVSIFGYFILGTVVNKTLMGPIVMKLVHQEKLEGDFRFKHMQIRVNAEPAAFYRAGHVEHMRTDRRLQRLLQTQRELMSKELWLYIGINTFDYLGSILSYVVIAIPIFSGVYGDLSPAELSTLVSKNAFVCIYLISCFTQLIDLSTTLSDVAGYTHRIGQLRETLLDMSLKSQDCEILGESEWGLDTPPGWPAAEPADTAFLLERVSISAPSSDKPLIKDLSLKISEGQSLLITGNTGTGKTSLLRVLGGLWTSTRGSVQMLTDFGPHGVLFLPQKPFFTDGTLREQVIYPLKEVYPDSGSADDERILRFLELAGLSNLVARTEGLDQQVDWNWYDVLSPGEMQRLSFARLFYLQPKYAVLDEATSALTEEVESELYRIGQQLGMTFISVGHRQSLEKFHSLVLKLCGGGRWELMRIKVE
T1 sequence (P28288 whole entry): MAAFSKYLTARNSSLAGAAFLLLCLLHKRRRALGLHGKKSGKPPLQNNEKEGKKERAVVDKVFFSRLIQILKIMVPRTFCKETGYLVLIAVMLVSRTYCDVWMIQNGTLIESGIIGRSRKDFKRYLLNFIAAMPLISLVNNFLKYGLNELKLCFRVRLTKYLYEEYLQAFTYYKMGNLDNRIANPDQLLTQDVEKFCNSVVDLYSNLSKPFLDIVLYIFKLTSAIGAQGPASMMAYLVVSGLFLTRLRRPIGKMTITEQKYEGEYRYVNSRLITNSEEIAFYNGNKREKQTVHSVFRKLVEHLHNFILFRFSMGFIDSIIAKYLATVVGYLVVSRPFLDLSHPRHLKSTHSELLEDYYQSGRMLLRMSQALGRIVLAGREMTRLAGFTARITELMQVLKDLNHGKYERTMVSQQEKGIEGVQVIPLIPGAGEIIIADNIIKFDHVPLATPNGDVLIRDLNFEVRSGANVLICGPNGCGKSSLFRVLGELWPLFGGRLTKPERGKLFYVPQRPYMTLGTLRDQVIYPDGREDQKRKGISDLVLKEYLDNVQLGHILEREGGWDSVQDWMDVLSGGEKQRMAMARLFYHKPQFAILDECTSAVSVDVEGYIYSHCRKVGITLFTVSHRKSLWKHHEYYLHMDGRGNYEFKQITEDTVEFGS
T6 sequence (Q9H221 whole entry): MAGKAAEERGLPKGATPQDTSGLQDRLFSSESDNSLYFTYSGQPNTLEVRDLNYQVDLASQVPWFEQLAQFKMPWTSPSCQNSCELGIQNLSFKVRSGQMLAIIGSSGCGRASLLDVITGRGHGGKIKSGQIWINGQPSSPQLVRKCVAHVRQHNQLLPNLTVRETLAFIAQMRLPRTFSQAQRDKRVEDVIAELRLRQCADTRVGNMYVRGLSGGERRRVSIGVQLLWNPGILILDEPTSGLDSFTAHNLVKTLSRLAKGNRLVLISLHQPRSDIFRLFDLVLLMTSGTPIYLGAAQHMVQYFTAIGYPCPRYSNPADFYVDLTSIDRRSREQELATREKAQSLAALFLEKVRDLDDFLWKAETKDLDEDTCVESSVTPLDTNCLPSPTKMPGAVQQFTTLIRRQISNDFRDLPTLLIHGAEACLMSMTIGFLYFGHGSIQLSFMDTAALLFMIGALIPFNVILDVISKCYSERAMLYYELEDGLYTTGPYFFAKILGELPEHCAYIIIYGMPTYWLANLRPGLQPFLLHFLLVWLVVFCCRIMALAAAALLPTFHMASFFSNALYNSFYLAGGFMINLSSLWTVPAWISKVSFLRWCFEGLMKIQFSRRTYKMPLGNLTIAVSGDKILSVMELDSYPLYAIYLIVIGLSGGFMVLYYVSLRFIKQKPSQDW
T6 sequence (Q9H222 whole entry partner): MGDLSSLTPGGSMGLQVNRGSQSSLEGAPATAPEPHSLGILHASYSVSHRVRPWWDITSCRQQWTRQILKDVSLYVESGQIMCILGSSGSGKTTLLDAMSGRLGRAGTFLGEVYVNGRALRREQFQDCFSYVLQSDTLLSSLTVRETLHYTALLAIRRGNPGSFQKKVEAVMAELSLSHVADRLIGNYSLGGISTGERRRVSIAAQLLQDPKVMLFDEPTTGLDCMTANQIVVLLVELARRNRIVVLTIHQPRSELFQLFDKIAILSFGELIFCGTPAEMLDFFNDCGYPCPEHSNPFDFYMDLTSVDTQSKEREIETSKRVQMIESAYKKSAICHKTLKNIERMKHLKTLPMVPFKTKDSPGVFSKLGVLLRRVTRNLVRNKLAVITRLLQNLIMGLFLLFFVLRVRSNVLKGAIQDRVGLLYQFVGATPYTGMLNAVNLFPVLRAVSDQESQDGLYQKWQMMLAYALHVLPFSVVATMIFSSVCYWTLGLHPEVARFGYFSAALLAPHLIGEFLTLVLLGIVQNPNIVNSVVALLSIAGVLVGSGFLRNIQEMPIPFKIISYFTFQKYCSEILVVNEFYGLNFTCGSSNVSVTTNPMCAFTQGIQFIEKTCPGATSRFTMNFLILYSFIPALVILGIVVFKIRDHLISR
Experimental for ABCA2: (§1) Expression levels are measured by real-time quantitative RT-PCR using the LightCycler RNA Amplification SYBR Green kit and a LightCycler machine (Roche Biochemicals, Indianapolis, Ind.). […] When possible, the amplicons are designed to encompass exon-intron boundaries to avoid amplification of genomic DNA. Since the Syber Green assay detects accumulation of double stranded DNA, primers are selected (from a battery consisting of about 200 primers) that amplified a single product of the correct size.
(§2) RT-PCR is carried out on 150 ng total RNA, in the presence of 250 nM specific primers. […]
(§3) During PCR amplification, fluorescence emission is measured and recorded in real time by the LightCycler. Crossing point values are calculated, using the LightCycler software package, by the Fit Points analysis method, with baseline fluorescence set at 1. The SyberGreen assay measures accumulation of double-stranded products, and the appearance of primer dimers limits quantitation at high cycle numbers. […] The raw results are expressed as number of cycles to reach the crossing point. If the desired product is not detected, the corresponding value is adjusted to crossing points indicating no expression. To assess the contribution of experimental artifacts, selected cell lines are assessed in replicate. […]
Experimental for ABCB2: (§4) Expression levels are measured by real-time quantitative RT-PCR using the LightCycler RNA Amplification SYBR Green kit and a LightCycler machine (Roche Biochemicals, Indianapolis, Ind.). Specific oligonucleotide probes are designed for each of the ABC transporters using DNAStar Primer Select (DNASTAR Inc.), and they may be synthesized at Lofstrand Laboratories (Gaithersburg, Md.). When possible, the amplicons are designed to encompass exon-intron boundaries to avoid amplification of genomic DNA. Since the Syber Green assay detects accumulation of double stranded DNA, primers are selected (from a battery consisting of about 200 primers) that amplified a single product of the correct size. […]
as §3
Experimental for ABCB3: as §1, §2
During PCR amplification, fluorescence emission is measured and recorded in real time by the LightCycler. Crossing point values are calculated, using the LightCycler software package, by the Fit Points analysis method, with baseline fluorescence set at 1. The SyberGreen assay measures accumulation of double-stranded products, and the appearance of primer dimers limits quantitation at high cycle numbers. […] The raw results are expressed as number of cycles to reach the crossing point. If the desired product is not detected, the corresponding value is adjusted to crossing points indicating no expression. To assess the contribution of experimental artifacts, selected cell lines are assessed in replicate.
Experimental for ABCC4: as §1, §2, §3
Experimental for ABCD1: as §1
RT-PCR is carried out on 150 ng total RNA, in the presence of 250 nM specific primers. Following reverse transcription (20 min at 50° C.), the PCR reaction consists of 45 cycles of denaturation (15 sec at 95° C.), annealing (30 sec at 58° C.), and elongation (30 sec at 72° C.). No-template (water) reaction mixtures are prepared as negative controls.
During PCR amplification, fluorescence emission is measured and recorded in real time by the LightCycler. Crossing point values are calculated, using the LightCycler software package, by the Fit Points analysis method, with baseline fluorescence set at 1. The SyberGreen assay measures accumulation of double-stranded products, and the appearance of primer dimers limits quantitation at high cycle numbers. The specificity of amplified products is verified by melting-curve analysis and agarose gel electrophoresis (not shown). The raw results are expressed as number of cycles to reach the crossing point. If the desired product is not detected, the corresponding value is adjusted to crossing points indicating no expression. To assess the contribution of experimental artifacts, selected cell lines are assessed in replicate.
The two are combined to form a joint dataset that includes 1429 compounds.
To determine quantitatively how well the 47 genes cluster the cell lines by their tissues of origin, a statistical method is employed wherein the kappa statistic is used to indicate how well the observed clusters correspond to the nine tissue-of-origin classifications. […] To control the overall false type 1 error rate, both a step-down procedure (Westfall and Young, 1993, Resampling-Based Multiple Testing: Examples and Methods for p-value Adjustment (New York: Wiley)) and a step-up procedure (Reiner et al., 2003, Bioinformatics 19:368-375) were employed to adjust for multiple testing of all 47 genes simultaneously. In the Benjamini-Hochberg procedure the p-values are computed in the standard way by permutation, assuming that all distributions are exchangeable: the number of values in the permuted data with correlations over a threshold, divided by the number of compounds and by the number of permutations. In this analysis, the False Discovery Rate (q-value) at which each compound would be declared was calculated using the step-up procedure for positively correlated test statistics (again true because all correlations being compared are computed against the same ABC gene): in this procedure the first q-value for the largest correlation is the Bonferroni-corrected p-value for that gene; then further q-values are calculated as qj=max(pj*1429/j, qj-1). This procedure limits the expected proportion of false positives in the list 1, . . . , j to at most qj.
Experimental for ABCD3: as §4, §3
Experimental for ABCD4: as §4, §3
Experimental for ABCF1: as §4, §3
Experimental for ABCG8: as §4, §3

As for `O=c1[nH]cc(F)c(=O)[nH]1` [NSC 19893], the Correlation on ABCD3 is −0.4232. For the molecule `CC(C)C1=CC2=CC[C@@H]3[C@](C)(CCC[C@@]3(C)C(=O)O)[C@H]2CC1` [NSC 25149], the Correlation at ABCB2 is on record as −0.3794.

For the molecule `CC(=O)OC(C)(C)/C=C/C(=O)[C@](C)(O)[C@H]1[C@H](O)C[C@@]2(C)[C@@H]3CC=C4[C@@H](C=C(O)C(=O)C4(C)C)[C@]3(C)C(=O)C[C@]12C` [NSC 106399], on ABCD4, the Correlation is reported as −0.4232. Besides, on ABCB1, the “Pearson's Correlation Coeff” value is recorded as 0.1871. As to `N[C@H](C(=O)O)[C@@H]1CC(Cl)=NO1` [NSC 163501], at ABCB1, the “Pearson's Correlation Coeff” value was found to be 0.2122. The Correlation is on record as −0.4301 at ABCD1 and −0.5274 on ABCF1.

Turning to `C=C1[C@@H](C)[C@H]2[C@H](Cc3ccccc3)NC(=O)[C@]23[C@H](OC(C)=O)/C=C/[C@@](C)(O)C(=O)[C@@H](C)C/C=C/[C@H]3[C@@H]1O` [NSC 209835], the Correlation on ABCG8 is −0.4443. Regarding `CSCSCC(CO)NC(=O)/C=C\c1c(C)[nH]c(=O)[nH]c1=O` (centres unmarked) [NSC 251820], the Correlation on ABCC4 is given as −0.4340.

Molecule `CS(=O)(=O)c1cc(=O)c2ccccc2s1` [NSC 622282] yielded a Correlation on ABCB3 of −0.4406. On ABCA2, `O=C1c2cccc3cc([N+](=O)[O-])cc(c23)C(=O)N1Nc1ccc([N+](=O)[O-])cc1[N+](=O)[O-]` [NSC 679265] returned a Correlation of −0.3298.

(Values after patent US20080214606A1, “Methods for the Identification and Use of Compounds Suitable for the Treatment of Drug Resistant Cancer Cells” (The Government of the United States of America as …, priority 2004, published 2008).)
